Calls of active or inactive are those of the source.
How the values were obtained:
[1] = biological target: T1, Histone-lysine N-methyltransferase NSD2 (Homo sapiens, UniProt O96028); type: biochemical
T1 sequence (O96028 whole entry): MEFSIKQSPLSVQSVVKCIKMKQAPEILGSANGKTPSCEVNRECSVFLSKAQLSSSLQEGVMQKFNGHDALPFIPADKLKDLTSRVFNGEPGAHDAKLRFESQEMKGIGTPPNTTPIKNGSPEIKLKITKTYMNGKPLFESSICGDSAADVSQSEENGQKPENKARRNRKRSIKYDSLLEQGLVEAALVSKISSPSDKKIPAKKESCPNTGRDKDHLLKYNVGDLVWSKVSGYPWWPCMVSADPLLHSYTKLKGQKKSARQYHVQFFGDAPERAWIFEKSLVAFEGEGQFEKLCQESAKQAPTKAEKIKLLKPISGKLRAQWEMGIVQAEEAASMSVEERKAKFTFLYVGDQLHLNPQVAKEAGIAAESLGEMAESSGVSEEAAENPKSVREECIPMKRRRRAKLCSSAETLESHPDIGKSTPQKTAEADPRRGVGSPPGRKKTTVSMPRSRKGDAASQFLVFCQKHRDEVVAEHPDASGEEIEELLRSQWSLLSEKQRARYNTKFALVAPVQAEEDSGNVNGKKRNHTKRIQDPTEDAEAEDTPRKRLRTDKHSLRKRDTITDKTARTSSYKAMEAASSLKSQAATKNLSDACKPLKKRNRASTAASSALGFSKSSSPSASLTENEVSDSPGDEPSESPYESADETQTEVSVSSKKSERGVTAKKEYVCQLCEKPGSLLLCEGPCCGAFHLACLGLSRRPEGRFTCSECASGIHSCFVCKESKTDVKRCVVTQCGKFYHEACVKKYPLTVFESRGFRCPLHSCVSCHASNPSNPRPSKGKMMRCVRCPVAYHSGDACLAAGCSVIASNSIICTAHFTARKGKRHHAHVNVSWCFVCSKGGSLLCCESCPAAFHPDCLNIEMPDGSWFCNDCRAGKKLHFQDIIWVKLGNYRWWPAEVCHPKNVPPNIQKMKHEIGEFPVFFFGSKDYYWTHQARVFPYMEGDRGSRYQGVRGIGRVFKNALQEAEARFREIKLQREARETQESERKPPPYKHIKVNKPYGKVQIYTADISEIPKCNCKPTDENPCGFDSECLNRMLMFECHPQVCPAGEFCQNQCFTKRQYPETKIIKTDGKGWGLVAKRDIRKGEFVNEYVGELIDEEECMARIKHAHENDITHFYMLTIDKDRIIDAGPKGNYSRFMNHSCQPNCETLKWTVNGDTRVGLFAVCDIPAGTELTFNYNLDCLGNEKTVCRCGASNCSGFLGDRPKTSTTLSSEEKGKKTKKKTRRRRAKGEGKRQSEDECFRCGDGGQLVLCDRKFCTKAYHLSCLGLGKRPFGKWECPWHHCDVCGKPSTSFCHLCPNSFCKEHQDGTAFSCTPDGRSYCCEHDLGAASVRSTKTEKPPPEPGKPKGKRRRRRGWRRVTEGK

[2] = system: H9c2; assay: cells; type: functional, cell-based; details: Rattus norvegicus, H9c2, Myocardium;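 note: confirmatory concentration-response retest of ultra-high-throughput screening hits for modulation of myocardial damage; cell death induced by hydrogen peroxide oxidative stress; compound pretreatment for 60 min then peroxide exposure for 2 h; potency is for protecting the cells against peroxide damage rather than for killing them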
[3] = biological target: Glyceraldehyde-3-phosphate dehydrogenase (Homo sapiens, UniProt P04406)
Chain of Glyceraldehyde-3-phosphate dehydrogenase (P04406 whole entry): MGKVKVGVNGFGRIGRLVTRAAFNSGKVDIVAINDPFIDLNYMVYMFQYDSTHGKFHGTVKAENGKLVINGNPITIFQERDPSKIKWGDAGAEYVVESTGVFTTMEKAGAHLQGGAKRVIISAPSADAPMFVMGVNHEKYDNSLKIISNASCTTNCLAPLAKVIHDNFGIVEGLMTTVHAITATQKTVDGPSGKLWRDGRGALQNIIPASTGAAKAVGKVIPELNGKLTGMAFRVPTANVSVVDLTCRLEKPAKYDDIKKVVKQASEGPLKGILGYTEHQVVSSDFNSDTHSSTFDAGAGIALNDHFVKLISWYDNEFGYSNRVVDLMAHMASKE

[4] = cytotoxicity in HEK-293T cells, dose response, cytotoxicity control for TCR NF-kB inhibitor project, luminescence, T-cell screen hits (AID 489026); type: functional, cell-based;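 note: cells exposed to compound about 14 hours before the viability readout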
[5] = Luminescence Cell-Based Dose Retest to Confirm Inhibitors of Cancer Stem Cells. [Related pubchem assays (depositor defined):AID2717, AID2721]; type: functional; details: Homo sapiens
[6] = biological target: T2, Microphthalmia-associated transcription factor (Homo sapiens, UniProt O75030); assay: TRPM1 promoter luciferase signal decrease, dose response, MITF inhibitor project, cell-based, SK-MEL-5, cherry-picked, set 3 (AID 493073); type: functional
T2 sequence (O75030 whole entry): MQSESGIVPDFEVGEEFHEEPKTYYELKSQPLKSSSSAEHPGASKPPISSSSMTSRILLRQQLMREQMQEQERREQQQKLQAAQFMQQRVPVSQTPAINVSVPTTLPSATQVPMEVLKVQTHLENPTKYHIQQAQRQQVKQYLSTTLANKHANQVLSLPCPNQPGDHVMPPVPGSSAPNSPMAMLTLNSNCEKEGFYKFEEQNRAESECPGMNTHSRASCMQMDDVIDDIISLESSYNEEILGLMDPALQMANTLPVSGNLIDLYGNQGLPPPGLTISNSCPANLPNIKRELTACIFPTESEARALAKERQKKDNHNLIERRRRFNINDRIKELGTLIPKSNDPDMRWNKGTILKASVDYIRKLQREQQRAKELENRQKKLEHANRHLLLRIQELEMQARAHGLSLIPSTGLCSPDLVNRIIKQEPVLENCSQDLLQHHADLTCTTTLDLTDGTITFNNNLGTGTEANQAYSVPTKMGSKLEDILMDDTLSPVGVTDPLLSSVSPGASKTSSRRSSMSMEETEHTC

[7] = biological target: T3, Rac GTPase-activating protein 1 (Homo sapiens, UniProt Q9H0H5); assay: MgcRacGAP GTPase-activating activity inhibitors, confirmation, biochemical, ADP Hunter fluorescence, primary and confirmatory (AID 624330); type: functional
T3 sequence (Q9H0H5 whole entry): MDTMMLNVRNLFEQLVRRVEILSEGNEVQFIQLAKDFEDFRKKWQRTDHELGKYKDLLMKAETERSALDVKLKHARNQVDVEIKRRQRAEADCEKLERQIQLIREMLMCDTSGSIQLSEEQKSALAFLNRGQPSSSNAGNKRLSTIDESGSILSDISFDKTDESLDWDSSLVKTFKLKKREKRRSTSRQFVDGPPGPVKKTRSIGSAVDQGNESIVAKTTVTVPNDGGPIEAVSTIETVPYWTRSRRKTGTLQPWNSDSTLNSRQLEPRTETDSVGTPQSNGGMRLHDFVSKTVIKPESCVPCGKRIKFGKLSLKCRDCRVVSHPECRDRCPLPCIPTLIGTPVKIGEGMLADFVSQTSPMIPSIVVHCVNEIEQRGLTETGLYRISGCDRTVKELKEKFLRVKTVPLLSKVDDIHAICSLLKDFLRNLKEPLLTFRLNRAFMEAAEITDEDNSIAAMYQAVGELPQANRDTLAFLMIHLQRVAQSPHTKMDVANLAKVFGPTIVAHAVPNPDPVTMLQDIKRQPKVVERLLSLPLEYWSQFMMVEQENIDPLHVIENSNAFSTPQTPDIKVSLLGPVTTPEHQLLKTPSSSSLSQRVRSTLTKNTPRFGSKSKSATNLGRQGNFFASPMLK

[8] = biological target: T4, Carboxy-terminal domain RNA polymerase II polypeptide A small phosphatase 1 (Homo sapiens, UniProt Q9GZU7); assay: inhibitors of CTDSP1, concentration-response testing, biochemical assay, absorbance-based, actives from ultra-high-throughput screening (AID 540297); type: functional
T4 sequence (Q9GZU7 whole entry): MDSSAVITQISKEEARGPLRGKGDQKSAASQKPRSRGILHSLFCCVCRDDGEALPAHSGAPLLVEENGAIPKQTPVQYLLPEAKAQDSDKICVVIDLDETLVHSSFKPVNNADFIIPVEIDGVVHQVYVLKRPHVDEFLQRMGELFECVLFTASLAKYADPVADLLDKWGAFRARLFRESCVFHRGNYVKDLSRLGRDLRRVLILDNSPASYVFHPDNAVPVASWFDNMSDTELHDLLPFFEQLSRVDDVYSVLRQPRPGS

[9] = control 3'UTR Renilla luciferase suppression, dose response, counter-screen for Shn3 inhibitor project, cell-based, Clone20-Shn3RL, cherry-picked (AID 624133); type: functional
[10] = Shn3 3'UTR reporter inhibitors, dose response, cell-based, Clone20 osteoblasts, firefly luciferase, cherry-picked (AID 624132); type: functional;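 note: firefly luciferase luminescence from reporter carrying the Shn3 3'UTR in osteoblasts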
[11] = HepG2 cell cytotoxicity, dose response, cytotoxicity control for Shn3 inhibitor project, CellTiter-Glo, cherry-picked (AID 624134); type: functional, cell-based
[12] = inhibitors of intracellular T. cruzi replication, confirmation, NIH3T3 host cells, beta-gal luminescence (AID 2044); type: functional, cell-based;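 note: intracellular parasites grown in NIH/3T3 mouse fibroblasts as host cells; luminescent beta-galactosidase reporter signal from transgenic T. cruzi replicating inside host cells; inhibitors lower the luminescence signal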
[13] = cytotoxicity toward NIH3T3 fibroblasts, dose response, counter-screen, cell-based, ATP luminescence, mouse fibroblasts (AID 2010); type: functional;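 note: cells exposed to compound for about 90 hours before reading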
[14] = Luminescence Cell-Based Dose Response HTS to Identify Activators of Luciferase Translation or Activity in H4 […] Cells. [Related pubchem assays: 1829 (Project Summary), 1814 (Primary HTS)]; type: functional
[15] = system: H4; assay: Luminescence Cell-Based Dose Response HTS to Identify Activators of 5'UTR Stem-Loop Driven Prion Protein mRNA Translation in H4 Neuroglioblastoma Cells. [Related pubchem assays: 1829 (Project Summary), 1814 (Primary HTS)]; type: functional; details: Homo sapiens
[16] = Luminescence Cell-Based Dose Confirmation HTS to Identify Activators of 5'UTR Stem-Loop Driven Alpha-Synuclein mRNA Translation in H4 Neuroglioblastoma Cells. [Related pubchem assays: 1829 (Project Summary), 1814 (Primary HTS)]; type: functional
[17] = P. falciparum Dd2 growth inhibitors, dose response, SYBR Green, cherry-picked samples (AID 1159567); type: functional, cell-based
[18] = biological target: Cytochrome P450 2C9 (Homo sapiens, UniProt P11712)
Chain of Cytochrome P450 2C9 (P11712 whole entry): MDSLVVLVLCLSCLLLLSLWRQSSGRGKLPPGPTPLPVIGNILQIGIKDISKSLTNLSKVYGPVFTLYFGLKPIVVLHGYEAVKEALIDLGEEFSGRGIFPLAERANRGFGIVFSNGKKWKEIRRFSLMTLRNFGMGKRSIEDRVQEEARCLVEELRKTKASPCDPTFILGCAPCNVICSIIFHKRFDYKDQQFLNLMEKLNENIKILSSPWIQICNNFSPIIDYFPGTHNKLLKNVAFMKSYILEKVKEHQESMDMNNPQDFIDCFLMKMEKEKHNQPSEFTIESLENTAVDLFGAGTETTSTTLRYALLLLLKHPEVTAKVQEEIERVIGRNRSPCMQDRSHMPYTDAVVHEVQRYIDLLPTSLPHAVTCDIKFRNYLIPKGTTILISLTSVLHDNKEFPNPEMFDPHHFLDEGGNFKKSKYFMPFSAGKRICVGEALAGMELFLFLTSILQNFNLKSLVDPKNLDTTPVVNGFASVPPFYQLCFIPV

[19] = Vero E6 cell cytotoxicity, dose response, cytotoxicity control for non-replicating M. tuberculosis project, secondary assay (AID 492998); type: functional, VeroE6; details: Vero C1008
[20] = cells; type: functional

CCN(CC)CCNC(=O)c1c(C)[nH]c(/C=C2\C(=O)Nc3ccc(F)cc32)c1C
AC50 [1]: > 20 µM (inactive)

Cn1c(=O)c2nc(NN=Cc3ccc(Br)cc3)[nH]c2n(C)c1=O
IC50 [2]: > 79 µM (inactive)

COc1cccc(CC(CC(=O)O)C(=O)O)c1 (stereo not drawn)
IC50 [3]: > 100 µM (not active)

Cc1cc(C)c(C)c(S(=O)(=O)N2CCN(C(=O)CCc3nc(O)c4ccccc4n3)CC2)c1C
IC50 [2]: > 79 µM (inactive)

Cc1cc2c(cc1C)C(c1ccccc1OC(C)C)CC(=O)N2 (stereo not drawn)
IC50 [4]: 62.2 µM (inactive) | AC50 [5]: 0.796 µM (active)

COc1ccc(C)c(Cn2c(-c3nonc3N)nc3ccccc32)c1
IC50 [4]: > 80 µM (inactive)

C[C+](C)[N-]Oc1cc(NC(=O)CCl)cc([N+](=O)[O-])c1
AC50 [6]: 6.18 µM (active)

O=[N+]([O-])c1ccccc1Nc1ccc(O)cc1
AC50 [1]: > 20 µM (inactive) | IC50 [7]: 22.6 µM (active)

c1ccc(-c2nn3c(-c4ccco4)nnc3s2)nc1
IC50 [2]: 12.8 µM (active)

CN(C)c1cccc2c(S(=O)(=O)Nc3ccccn3)cccc12
AC50 [1]: 15.3 µM (active)

O=C(CCc1nc(O)c2ccccc2n1)N1CCN(S(=O)(=O)c2cccc([N+](=O)[O-])c2)CC1
IC50 [2]: > 79 µM (inactive)

O=C(NCc1cccs1)C1CCN(c2ccc(S(=O)(=O)N3CCOCC3)cc2Cl)CC1
IC50 [4]: > 80 µM (inactive)

COc1cc(/C=C2/SC(=S)NC2=O)cc(Cl)c1OCc1ccc(Cl)cc1Cl
IC50 [3]: > 100 µM (not active)

CCOC(=O)c1ccc2c(c1)[n+](CC)c(/C=C/N(C)c1ccccc1)n2CC
IC50 [8]: 4.04 µM (active) | AC50 [6]: 3.24 µM (active)

CCOC(=O)N1CCC(NC(=O)C2CCCN(Cc3nc(-c4cccc(C)c4)oc3C)C2)CC1 (stereo not drawn)
AC50 [9]: 7.52 µM (active) | AC50 [10]: 3.06 µM (active) | AC50 [11]: 55.6 µM (active) | AC50 [6]: 34.9 µM (active)

O=C(Nc1ccc(N2CCN(C(=O)c3ccc(Cl)cc3)CC2)cc1)c1ccc([N+](=O)[O-])o1
AC50 [6]: 7.32 µM (active) | EC50 [12]: 1.81 µM (active) | EC50 [13]: 32.8 µM (active)

CC(C)N1C(=O)CC(Nc2ccc(N3CCOCC3)cc2)C1=O (stereo not drawn)
EC50 [14]: 29.1 µM (active) | EC50 [15]: > 120 µM (not active) | EC50 [16]: > 120 µM (not active)

Cc1ccc(S(=O)(=O)N(C)C[C@H]2Oc3ccc(NC(=O)c4ccncc4)cc3C(=O)N([C@@H](C)CO)C[C@@H]2C)cc1
AC50 [17]: 8.41 µM (active)

O=C(CSc1ccc(-c2ccccc2)nn1)Nc1ccc2c(c1)OCCO2
EC50 [14]: 13.1 µM (active) | EC50 [15]: > 120 µM (not active) | EC50 [16]: 7.15 µM (active)

C=CCNC(=O)c1ccc(OC2CCN(S(=O)(=O)N(C)C)CC2)cc1
EC50 [14]: 15.2 µM (active) | EC50 [15]: 25.6 µM (active) | EC50 [16]: 16.9 µM (active)

Cc1cccc2cc(/C=C3\N=C(c4ccccc4)OC3=O)c(N(C)C)nc12
IC50 [3]: > 100 µM (not active)

Cn1c(-c2ccc3c(c2)OCO3)cnc1NCc1ccccc1
EC50 [14]: 6.69 µM (active) | EC50 [15]: 39.9 µM (active) | AC50 [18]: 31.6 µM (inconclusive) | EC50 [16]: 14.6 µM (active)

Cc1ccc(N2C(=O)c3[nH]nc(C)c3C2c2ccco2)cc1 (stereo not drawn)
EC50 [14]: 48.5 µM (active) | EC50 [15]: 17.9 µM (inconclusive) | EC50 [16]: > 120 µM (not active)

N#Cc1ccc(-c2ccc3c(c2)[C@@H]2[C@@H](CCN2C(=O)C2CCC2)[C@@H](CO)N3)cc1
AC50 [17]: 9.93 µM (active)

COc1cc(C)c(Cl)cc1S(=O)(=O)Nc1cccnc1
IC50 [3]: > 10 µM (inconclusive)

CCOc1ccccc1NC(=O)c1oc2ccccc2c1NC(=O)C1CCCO1 (stereo not drawn)
IC50 [2]: > 79 µM (inactive)

Cc1cc(C)n2[nH]c(=O)c(N=Nc3cccc(Cl)c3)c2n1
CC50 [19]: > 20 µM (active) | IC50 [20]: 17.7 µM (active)

CC(=O)Nc1nnc(SCc2cccc3ccccc23)[nH]1
IC50 [3]: > 100 µM (not active)

— ChEMBL document CHEMBL1201862, “PubChem BioAssay data set” (2004)
